≈ marks a conversion by molar mass, not a printed value.
Experiments:
[1] = system: Radical scavenging activity; experiment: Antioxidant activity assessed as DPPH radical scavenging activity; format: functional
[2] = system: Liver; experiment: Inhibition of H2O2-induced lipid peroxidation in rat liver homogenates assessed as malondialdehyde level after 4 hrs; format: functional, tissue-based
[3] = Antioxidant activity assessed as ferric ion reducing activity using fe3+-TPTZ at 20 ug/ml by FRAP assay; format: functional
[4] = system: Liver; experiment: Inhibition of H2O2-induced lipid peroxidation in rat liver homogenates assessed as malondialdehyde level at 80 ug/ml after 4 hrs; format: functional, tissue-based
[5] = Antioxidant activity assessed as ferric ion reducing activity using fe3+-TPTZ at 80 ug/ml by FRAP assay; format: functional
[6] = Antioxidant activity assessed as ferric ion reducing activity using fe3+-TPTZ at 40 ug/ml by FRAP assay; format: functional
[7] = system: Liver; experiment: Inhibition of H2O2-induced lipid peroxidation in rat liver homogenates assessed as malondialdehyde level at 32 ug/ml after 4 hrs; format: functional, tissue-based

| SMILES | IC50 [1] [µg/mL] | Activity [2] [nM/ml] | Activity [3] [µM/L] | inhibition [4] [%] | Activity [5] [µM/L] | Activity [6] [µM/L] | inhibition [7] [%] |
| --- | --- | --- | --- | --- | --- | --- | --- |
| Oc1ccc([C@H]2Oc3cc(O)cc(O)c3C[C@H]2O)cc1 [EPIAFZELECHIN (2R,3R)(-)] | 9.25 (≈ 33.7 µM) | 14.4 | 493 | 81.8 | 1510 | 978 | – |
| O=c1c(O)c(-c2ccc(O)c(O)c2)oc2cc(O)cc(O)c12 [QUERCETIN] | 23.53 (≈ 77.9 µM) | 19.4 | – | – | – | – | 75.4 |

— ChEMBL document CHEMBL1764991, “Epiafzelechin from the root bark of Cassia sieberiana: detection by DART mass spectrometry, spectroscopic characterization, and antioxidant properties” (J Nat Prod, 2011)
